Data on 8 compounds can be found in ChEMBL document CHEMBL3991601, “The target landscape of clinical kinase drugs” (Science, 2017).

Activity calls are given as the source filed them. For most assays here, no stated cut-off is given here; in the data, actives have a measured Kd and inactives only a lower limit.

Assay [1] addresses T1, Serine/threonine-protein kinase Chk1 (Homo sapiens, UniProt O14757).
T1 sequence (O14757 whole entry): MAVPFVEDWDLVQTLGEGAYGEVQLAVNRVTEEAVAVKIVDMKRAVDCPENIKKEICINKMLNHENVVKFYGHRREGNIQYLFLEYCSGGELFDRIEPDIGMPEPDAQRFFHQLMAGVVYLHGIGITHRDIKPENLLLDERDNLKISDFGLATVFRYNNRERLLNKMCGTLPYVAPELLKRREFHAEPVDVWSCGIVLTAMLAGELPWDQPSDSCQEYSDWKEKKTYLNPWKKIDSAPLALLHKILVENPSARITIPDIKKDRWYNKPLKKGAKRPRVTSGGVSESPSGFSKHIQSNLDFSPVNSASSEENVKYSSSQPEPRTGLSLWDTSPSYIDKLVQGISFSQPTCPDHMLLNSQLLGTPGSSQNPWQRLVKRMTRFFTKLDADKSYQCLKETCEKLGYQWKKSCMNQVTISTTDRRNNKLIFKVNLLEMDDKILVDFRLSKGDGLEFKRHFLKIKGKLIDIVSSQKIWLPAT

In assay [2] the target is AP2-associated protein kinase 1 (Homo sapiens, UniProt Q2M2I8).
Sequence of AP2-associated protein kinase 1 (Q2M2I8 whole entry): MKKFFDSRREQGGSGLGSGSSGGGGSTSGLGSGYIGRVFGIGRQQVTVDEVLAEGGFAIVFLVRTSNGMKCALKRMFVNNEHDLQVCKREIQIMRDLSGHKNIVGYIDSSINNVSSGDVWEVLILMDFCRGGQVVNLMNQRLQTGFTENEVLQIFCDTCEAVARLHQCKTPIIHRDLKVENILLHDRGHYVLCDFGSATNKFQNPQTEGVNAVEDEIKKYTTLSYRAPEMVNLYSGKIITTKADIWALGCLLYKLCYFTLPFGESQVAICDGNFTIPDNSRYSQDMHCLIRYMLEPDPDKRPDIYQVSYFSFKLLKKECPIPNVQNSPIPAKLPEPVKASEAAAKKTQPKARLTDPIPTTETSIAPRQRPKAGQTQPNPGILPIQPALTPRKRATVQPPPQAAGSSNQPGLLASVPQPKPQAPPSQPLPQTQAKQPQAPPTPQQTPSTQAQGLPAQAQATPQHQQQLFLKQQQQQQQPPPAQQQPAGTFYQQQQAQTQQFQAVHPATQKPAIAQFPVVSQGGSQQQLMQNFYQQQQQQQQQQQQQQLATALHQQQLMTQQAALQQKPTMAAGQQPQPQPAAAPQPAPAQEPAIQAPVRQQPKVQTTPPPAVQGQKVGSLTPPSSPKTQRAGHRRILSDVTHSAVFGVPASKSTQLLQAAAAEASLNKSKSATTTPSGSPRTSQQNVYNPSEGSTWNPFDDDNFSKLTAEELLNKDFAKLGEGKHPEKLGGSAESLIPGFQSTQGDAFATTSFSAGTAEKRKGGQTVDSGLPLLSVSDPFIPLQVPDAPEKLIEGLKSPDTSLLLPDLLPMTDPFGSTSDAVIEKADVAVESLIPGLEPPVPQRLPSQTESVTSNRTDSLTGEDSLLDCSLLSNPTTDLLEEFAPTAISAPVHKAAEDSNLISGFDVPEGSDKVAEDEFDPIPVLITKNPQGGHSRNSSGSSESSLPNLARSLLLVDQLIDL
In assay [3] the target is Aurora kinase B (Homo sapiens, UniProt Q96GD4).
Sequence of Aurora kinase B (Q96GD4 whole entry): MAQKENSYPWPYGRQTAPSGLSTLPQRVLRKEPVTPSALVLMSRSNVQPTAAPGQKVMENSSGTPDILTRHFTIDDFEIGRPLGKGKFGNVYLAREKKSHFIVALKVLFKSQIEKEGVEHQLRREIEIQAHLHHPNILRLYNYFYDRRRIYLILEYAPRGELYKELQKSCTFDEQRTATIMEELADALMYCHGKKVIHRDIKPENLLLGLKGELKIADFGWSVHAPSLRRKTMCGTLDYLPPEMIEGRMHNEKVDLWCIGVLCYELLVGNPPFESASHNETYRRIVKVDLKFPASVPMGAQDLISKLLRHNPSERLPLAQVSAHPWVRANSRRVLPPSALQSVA
The target in assay [4] is Cyclin-dependent kinase 4 (Homo sapiens, UniProt P11802).
Sequence of Cyclin-dependent kinase 4 (P11802 whole entry): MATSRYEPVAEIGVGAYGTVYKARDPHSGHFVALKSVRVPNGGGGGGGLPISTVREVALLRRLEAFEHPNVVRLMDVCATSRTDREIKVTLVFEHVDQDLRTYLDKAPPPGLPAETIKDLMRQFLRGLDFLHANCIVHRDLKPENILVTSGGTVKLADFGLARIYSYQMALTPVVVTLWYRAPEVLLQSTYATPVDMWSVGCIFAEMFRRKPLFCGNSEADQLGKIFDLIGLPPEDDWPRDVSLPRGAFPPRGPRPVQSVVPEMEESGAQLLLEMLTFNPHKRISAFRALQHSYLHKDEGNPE
In assay [5] the target is BMP-2-inducible protein kinase (Homo sapiens, UniProt Q9NSY1).
Sequence of BMP-2-inducible protein kinase (Q9NSY1 whole entry): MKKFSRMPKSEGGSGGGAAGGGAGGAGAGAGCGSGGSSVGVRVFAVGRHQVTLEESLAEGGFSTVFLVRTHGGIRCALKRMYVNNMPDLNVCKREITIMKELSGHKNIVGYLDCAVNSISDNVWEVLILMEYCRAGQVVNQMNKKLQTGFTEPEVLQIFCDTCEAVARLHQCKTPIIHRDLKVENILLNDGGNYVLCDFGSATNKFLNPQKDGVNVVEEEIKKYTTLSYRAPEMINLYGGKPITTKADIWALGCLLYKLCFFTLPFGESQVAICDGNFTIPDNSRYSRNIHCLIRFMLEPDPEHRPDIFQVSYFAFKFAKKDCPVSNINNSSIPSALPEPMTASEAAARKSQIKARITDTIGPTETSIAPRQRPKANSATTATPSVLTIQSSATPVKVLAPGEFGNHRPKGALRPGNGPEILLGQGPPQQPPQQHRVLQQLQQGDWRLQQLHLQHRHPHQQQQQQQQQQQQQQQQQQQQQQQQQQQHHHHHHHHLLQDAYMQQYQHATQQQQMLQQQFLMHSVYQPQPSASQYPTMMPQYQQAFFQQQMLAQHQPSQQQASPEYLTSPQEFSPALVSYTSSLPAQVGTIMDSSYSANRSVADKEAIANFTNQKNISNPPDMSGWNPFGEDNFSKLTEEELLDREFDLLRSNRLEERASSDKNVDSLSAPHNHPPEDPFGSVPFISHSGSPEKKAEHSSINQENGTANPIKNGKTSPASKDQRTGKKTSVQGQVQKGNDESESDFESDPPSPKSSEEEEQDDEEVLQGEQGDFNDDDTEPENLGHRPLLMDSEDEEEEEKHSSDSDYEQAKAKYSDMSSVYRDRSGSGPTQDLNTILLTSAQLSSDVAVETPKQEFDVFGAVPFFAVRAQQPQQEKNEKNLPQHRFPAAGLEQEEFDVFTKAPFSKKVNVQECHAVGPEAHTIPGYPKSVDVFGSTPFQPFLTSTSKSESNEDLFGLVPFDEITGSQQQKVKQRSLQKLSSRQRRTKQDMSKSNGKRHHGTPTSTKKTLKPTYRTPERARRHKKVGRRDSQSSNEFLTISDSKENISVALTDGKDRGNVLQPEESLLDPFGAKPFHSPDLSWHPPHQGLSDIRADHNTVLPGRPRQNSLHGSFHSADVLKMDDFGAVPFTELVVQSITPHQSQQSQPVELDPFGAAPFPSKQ
The target of assay [6] is T2, Ephrin type-B receptor 4 (Homo sapiens, UniProt P54760).
T2 sequence (P54760 whole entry): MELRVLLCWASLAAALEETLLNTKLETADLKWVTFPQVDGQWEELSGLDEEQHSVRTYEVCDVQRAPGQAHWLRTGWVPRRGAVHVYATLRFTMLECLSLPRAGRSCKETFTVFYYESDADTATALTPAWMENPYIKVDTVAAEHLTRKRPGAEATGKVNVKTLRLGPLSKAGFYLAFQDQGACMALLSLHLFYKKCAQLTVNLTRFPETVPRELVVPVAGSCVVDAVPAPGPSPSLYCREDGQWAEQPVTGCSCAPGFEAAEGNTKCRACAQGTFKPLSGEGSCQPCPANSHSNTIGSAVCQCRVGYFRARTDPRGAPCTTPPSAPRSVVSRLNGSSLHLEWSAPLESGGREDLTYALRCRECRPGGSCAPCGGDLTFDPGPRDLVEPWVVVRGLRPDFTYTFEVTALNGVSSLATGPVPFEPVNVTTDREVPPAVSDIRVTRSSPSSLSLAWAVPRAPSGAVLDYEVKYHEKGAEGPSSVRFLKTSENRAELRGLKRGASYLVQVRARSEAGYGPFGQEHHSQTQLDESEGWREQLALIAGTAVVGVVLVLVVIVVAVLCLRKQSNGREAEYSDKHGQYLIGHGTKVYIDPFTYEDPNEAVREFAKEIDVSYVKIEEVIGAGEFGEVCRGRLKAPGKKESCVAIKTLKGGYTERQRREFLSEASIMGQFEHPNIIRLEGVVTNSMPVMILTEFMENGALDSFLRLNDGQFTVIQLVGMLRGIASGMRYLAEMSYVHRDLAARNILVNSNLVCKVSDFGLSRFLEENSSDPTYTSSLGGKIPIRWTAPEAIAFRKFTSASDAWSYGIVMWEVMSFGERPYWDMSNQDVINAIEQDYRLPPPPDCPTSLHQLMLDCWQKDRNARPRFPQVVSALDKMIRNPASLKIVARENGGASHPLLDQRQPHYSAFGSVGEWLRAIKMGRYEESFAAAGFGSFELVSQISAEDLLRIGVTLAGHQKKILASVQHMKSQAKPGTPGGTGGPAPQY

Assay [7] addresses 26S proteasome regulatory subunit 6B (Homo sapiens, UniProt P43686).
Assay [8] concerns the target T3, Structural maintenance of chromosomes protein 1A (Homo sapiens, UniProt Q14683).
T3 sequence (Q14683 whole entry): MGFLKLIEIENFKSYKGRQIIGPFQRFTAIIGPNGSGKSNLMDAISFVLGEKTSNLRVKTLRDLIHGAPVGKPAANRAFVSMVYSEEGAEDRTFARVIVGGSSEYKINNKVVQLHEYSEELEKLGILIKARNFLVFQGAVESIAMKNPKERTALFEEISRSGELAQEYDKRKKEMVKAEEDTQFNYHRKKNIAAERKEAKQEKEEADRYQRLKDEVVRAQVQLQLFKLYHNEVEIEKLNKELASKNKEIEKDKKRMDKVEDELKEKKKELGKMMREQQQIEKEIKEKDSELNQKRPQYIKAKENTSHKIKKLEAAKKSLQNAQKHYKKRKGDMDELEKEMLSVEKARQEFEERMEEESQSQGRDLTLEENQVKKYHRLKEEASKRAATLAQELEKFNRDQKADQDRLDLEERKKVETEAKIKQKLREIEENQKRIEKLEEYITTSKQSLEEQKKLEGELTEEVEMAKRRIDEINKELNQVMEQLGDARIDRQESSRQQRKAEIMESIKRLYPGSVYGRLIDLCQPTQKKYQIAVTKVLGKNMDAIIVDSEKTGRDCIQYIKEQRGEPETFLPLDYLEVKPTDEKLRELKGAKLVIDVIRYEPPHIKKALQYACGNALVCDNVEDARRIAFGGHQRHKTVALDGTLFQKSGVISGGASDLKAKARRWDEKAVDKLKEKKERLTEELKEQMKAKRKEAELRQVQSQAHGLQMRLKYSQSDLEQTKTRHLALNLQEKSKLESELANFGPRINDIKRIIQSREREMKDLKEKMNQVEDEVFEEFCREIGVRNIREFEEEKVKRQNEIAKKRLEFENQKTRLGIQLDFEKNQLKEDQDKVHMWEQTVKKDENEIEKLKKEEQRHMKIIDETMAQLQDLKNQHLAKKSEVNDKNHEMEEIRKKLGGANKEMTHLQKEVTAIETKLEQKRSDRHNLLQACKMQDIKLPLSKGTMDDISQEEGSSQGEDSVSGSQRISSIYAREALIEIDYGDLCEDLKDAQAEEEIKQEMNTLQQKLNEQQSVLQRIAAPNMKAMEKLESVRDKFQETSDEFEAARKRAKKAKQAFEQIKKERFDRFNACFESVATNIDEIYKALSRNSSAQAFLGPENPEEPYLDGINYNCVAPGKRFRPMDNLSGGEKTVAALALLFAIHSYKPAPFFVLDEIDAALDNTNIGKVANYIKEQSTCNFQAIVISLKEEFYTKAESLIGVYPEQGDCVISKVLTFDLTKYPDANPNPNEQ

Assay [9] addresses Macrophage-stimulating protein receptor (Homo sapiens, UniProt Q04912).

Sequence of Macrophage-stimulating protein receptor (Q04912 25-304 limits assumed): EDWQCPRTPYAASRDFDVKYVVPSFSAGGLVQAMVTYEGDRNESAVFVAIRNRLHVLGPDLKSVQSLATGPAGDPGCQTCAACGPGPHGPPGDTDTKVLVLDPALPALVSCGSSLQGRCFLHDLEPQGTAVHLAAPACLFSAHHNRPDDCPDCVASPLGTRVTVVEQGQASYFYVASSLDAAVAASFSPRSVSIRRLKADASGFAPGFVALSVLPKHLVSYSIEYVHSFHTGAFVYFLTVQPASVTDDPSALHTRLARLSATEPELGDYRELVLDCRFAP
Sequence of Macrophage-stimulating protein receptor (Q04912 310-1400 limits assumed): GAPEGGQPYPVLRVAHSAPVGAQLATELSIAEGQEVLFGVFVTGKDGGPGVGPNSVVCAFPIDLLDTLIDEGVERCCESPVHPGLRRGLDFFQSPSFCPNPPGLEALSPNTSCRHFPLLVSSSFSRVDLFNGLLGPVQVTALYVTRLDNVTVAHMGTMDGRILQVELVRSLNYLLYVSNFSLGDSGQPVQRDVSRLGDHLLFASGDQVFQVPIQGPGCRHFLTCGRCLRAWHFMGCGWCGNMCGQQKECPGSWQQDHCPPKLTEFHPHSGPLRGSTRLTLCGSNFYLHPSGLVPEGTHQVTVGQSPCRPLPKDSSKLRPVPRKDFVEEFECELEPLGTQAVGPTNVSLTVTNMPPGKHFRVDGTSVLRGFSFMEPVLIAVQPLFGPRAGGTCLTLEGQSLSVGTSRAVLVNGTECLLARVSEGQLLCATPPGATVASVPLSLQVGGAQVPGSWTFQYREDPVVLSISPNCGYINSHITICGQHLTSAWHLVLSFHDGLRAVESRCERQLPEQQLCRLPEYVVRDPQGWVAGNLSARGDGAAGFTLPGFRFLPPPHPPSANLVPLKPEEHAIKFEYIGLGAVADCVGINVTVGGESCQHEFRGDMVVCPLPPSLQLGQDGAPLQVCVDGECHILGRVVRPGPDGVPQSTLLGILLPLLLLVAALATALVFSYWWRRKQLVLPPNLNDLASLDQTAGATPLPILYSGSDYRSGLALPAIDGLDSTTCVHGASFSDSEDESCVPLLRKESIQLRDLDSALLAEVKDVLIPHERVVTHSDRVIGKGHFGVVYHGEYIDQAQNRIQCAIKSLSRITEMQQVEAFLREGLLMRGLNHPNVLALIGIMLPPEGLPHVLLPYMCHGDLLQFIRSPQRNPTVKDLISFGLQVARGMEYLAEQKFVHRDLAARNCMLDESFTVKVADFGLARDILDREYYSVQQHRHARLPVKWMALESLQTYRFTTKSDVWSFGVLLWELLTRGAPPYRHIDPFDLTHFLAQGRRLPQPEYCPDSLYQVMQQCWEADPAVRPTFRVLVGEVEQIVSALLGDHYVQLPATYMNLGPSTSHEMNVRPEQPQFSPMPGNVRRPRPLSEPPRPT
Sequence of 26S proteasome regulatory subunit 6B (P43686 whole entry): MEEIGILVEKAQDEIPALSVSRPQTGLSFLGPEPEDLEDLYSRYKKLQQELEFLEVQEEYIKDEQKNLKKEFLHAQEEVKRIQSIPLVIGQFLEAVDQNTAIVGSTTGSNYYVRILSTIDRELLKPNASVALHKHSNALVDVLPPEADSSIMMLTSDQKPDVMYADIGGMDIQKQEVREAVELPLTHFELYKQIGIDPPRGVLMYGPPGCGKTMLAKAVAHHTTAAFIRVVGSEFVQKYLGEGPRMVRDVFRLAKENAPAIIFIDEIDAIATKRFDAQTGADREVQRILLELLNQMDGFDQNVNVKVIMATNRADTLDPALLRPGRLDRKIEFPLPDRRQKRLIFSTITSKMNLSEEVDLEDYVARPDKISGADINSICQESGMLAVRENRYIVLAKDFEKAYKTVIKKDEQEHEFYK

Take `C[C@@H](Oc1cc(C(=O)Nc2ccc(C(=O)N3CCN(C)CC3)cc2)nnc1N)c1c(Cl)ccc(F)c1Cl`: the Kd (commonly the concentration at which binding is half-saturated) in assay [1] is > 30 µM (inactive); in assay [2], 22.2 µM (active); in [3], > 30 µM (inactive); in assay [4], > 30 µM (inactive); in assay [5], > 30 µM (inactive); in [6], > 30 µM (inactive). In addition, the Kd in assay [7], in assay [8] and in assay [9] was > 30 µM (inactive) each time.
Turning to `Nc1ncnc2c1c(-c1cccc(OCc3ccccc3)c1)cn2[C@H]1C[C@@H](CN2CCC2)C1` [AEW-541], the Kd in [1], in assay [2], in assay [3], in assay [4], in assay [5] and in assay [6] was > 30 µM (inactive) each time. For the same compound, the Kd in assay [7], in assay [8] and in assay [9] was > 30 µM (inactive) throughout.
Consider `Cc1nc(NC(=O)N2CCC[C@H]2C(N)=O)sc1-c1ccnc(C(C)(C)C(F)(F)F)c1` [ALPELISIB], for which the Kd in assay [1], in assay [2], in assay [3], in [4], in assay [5] and in assay [6] was > 30 µM (inactive) each time. The Kd in assay [7], in assay [8] and in assay [9] was > 30 µM (inactive) throughout.
In the case of `Cc1csc(-c2nnc(Nc3ccc(Oc4ncccc4-c4ccnc(N)n4)cc3)c3ccccc23)c1` [AMG-900], the Kd in assay [1] is > 30 µM (inactive); in assay [2], > 30 µM (inactive); in assay [3] it was 0.02 µM (active); in [4], > 30 µM (inactive); in assay [5], > 30 µM (inactive); in assay [6] it was > 30 µM (inactive). The Kd in [7], in assay [8] and in assay [9] was > 30 µM (inactive) each time.
On to `C=CC(=O)Nc1cc2c(Nc3ccc(F)c(Cl)c3)ncnc2cc1C#CC(C)(C)N1CCN(C)CC1` [AV-412 FREE BASE], for which the Kd in assay [1], in assay [2], in [3], in assay [4], in assay [5] and in [6] was > 30 µM (inactive) each time. In addition, the Kd in [7], in [8] and in assay [9] was > 30 µM (inactive) each time.
`COc1cc([C@@H]2c3cc4c(cc3[C@H](O)[C@H]3COC(=O)[C@@H]23)OCO4)cc(OC)c1OC` [AXL-1717]: the Kd in [1], in [2], in assay [3], in assay [4], in [5] and in assay [6] was > 30 µM (inactive) each time. Moreover, the Kd in [7], in assay [8] and in assay [9] was > 30 µM (inactive) throughout.
Consider `Cc1cc(C(=O)NOCCO)c(Nc2ccc(I)cc2F)n(C)c1=O` [AZD-8330], for which the Kd in assay [1], in [2], in [3], in assay [4], in assay [5] and in assay [6] was > 30 µM (inactive) each time. For the same compound, the Kd in assay [7], in [8] and in assay [9] was > 30 µM (inactive) each time.
With `Cn1cnc2c(F)c(Nc3ccc(Br)cc3F)c(C(=O)NOCCO)cc21` [BINIMETINIB], the Kd in assay [1], in assay [2], in assay [3], in assay [4], in [5] and in assay [6] was > 30 µM (inactive) each time. The Kd in assay [7], in assay [8] and in assay [9] was > 30 µM (inactive) each time.
